# Laboratory results published in PubChem BioAssay AID1963420 (Molecular Pharmacology Branch, DTP, NCI, 2024).
# System: 494315-158-R-J1-PDC complex spheroid growth, percent test/control
# Experiment: Anticancer human tumor 494315-158-R-J1-PDC patient-derived soft tissue sarcoma cell line growth inhibition [Asc]
# Details: for IC50: curve of first compound; for viability, T/C: stronger effect = lower value
# Summary of the method: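 Tumor cells were grown as complex spheroids with human endothelial cells (HUVEC) and human mesenchymal stem cells as stroma. Agents were tested alone and in combination, in half-log steps down from the clinical Cmax, or from 10 microM where Cmax was unknown.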
# [1] = second compound 0.03 µM, first compound 0.0316 µM
# [2] = second compound 0.03 µM, first compound 0.1 µM
# [3] = second compound 0.03 µM, first compound 0.316 µM
# [4] = second compound 0.03 µM, first compound 1 µM
# [5] = second compound 0.0949 µM, first compound 0.0316 µM
# [6] = second compound 0.0949 µM, first compound 0.1 µM
# [7] = second compound 0.0949 µM, first compound 0.316 µM
# [8] = second compound 0.0949 µM, first compound 1 µM
# [9] = second compound 0.3 µM, first compound 0.0316 µM
# [10] = second compound 0.3 µM, first compound 0.1 µM
# [11] = second compound 0.3 µM, first compound 0.316 µM
# [12] = second compound 0.3 µM, first compound 1 µM
# [13] = second compound 0.949 µM, first compound 0.0316 µM
# [14] = second compound 0.949 µM, first compound 0.1 µM
# [15] = second compound 0.949 µM, first compound 0.316 µM
# [16] = second compound 0.949 µM, first compound 1 µM
# [17] = second compound 3 µM, first compound 0.0316 µM
# [18] = second compound 3 µM, first compound 0.1 µM
# [19] = second compound 3 µM, first compound 0.316 µM
# [20] = second compound 3 µM, first compound 1 µM
# 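Further: compound exposure lasted seven days after spheroids formed for three days.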
structure (smiles),measurement,setting,value
COc1c(OCCCN2CCOCC2)ccc2c3n(c(=NC(=O)c4cnc(N)nc4)nc12)CCN3 + CNC(C)C(=O)NC1CN(S(=O)(=O)c2cccc(S(=O)(=O)N3CCC4CCC(C(=O)NC(c5ccccc5)c5ccccc5)N4C(=O)C(NC(=O)C(C)NC)C3)c2)CCC2CCC(C(=O)NC(c3ccccc3)c3ccccc3)N2C1=O,IC50,second compound 0.01 µM,0.0171 µM
same,IC50,second compound 0.0316 µM,0.011 µM
same,IC50,second compound 0.1 µM,0.00459 µM
same,IC50,second compound 0.316 µM,< 0.00316 µM
same,IC50,second compound 1 µM,< 0.00316 µM
same,"viability, T/C","second compound 0.01 µM, first compound 0.00316 µM",65.8%
same,"viability, T/C","second compound 0.01 µM, first compound 0.01 µM",55.1%
same,"viability, T/C","second compound 0.01 µM, first compound 0.0316 µM",44.7%
same,"viability, T/C","second compound 0.01 µM, first compound 0.1 µM",22.7%
same,"viability, T/C","second compound 0.01 µM, first compound 0.316 µM",16.8%
same,"viability, T/C","second compound 0.01 µM, first compound 1 µM",8.91%
same,"viability, T/C","second compound 0.0316 µM, first compound 0.00316 µM",53.5%
same,"viability, T/C","second compound 0.0316 µM, first compound 0.01 µM",54.3%
same,"viability, T/C","second compound 0.0316 µM, first compound 0.0316 µM",37.3%
same,"viability, T/C","second compound 0.0316 µM, first compound 0.1 µM",25.5%
same,"viability, T/C","second compound 0.0316 µM, first compound 0.316 µM",14%
same,"viability, T/C","second compound 0.0316 µM, first compound 1 µM",9.58%
same,"viability, T/C","second compound 0.1 µM, first compound 0.00316 µM",52.3%
same,"viability, T/C","second compound 0.1 µM, first compound 0.01 µM",45.3%
same,"viability, T/C","second compound 0.1 µM, first compound 0.0316 µM",30.1%
same,"viability, T/C","second compound 0.1 µM, first compound 0.1 µM",18.9%
same,"viability, T/C","second compound 0.1 µM, first compound 0.316 µM",12.8%
same,"viability, T/C","second compound 0.1 µM, first compound 1 µM",9.36%
same,"viability, T/C","second compound 0.316 µM, first compound 0.00316 µM",38.2%
same,"viability, T/C","second compound 0.316 µM, first compound 0.01 µM",39.2%
same,"viability, T/C","second compound 0.316 µM, first compound 0.0316 µM",28.4%
same,"viability, T/C","second compound 0.316 µM, first compound 0.1 µM",16.8%
same,"viability, T/C","second compound 0.316 µM, first compound 0.316 µM",11.8%
same,"viability, T/C","second compound 0.316 µM, first compound 1 µM",9.4%
same,"viability, T/C","second compound 1 µM, first compound 0.00316 µM",47.4%
same,"viability, T/C","second compound 1 µM, first compound 0.01 µM",35.2%
same,"viability, T/C","second compound 1 µM, first compound 0.0316 µM",25.2%
same,"viability, T/C","second compound 1 µM, first compound 0.1 µM",18.6%
same,"viability, T/C","second compound 1 µM, first compound 0.316 µM",9.45%
same,"viability, T/C","second compound 1 µM, first compound 1 µM",7.69%
CCN1CCN(Cc2ccc(Nc3ncc(F)c(-c4cc(F)c5nc(C)n(C(C)C)c5c4)n3)nc2)CC1 + CCN1C(C(=O)NC23CCC(C(=O)O)(CC2)CC3)C(c2cccc(Cl)c2F)C2(C(=O)Nc3cc(Cl)ccc32)C12CCCCC2,IC50,second compound 0.03 µM,> 1 µM
same,IC50,second compound 0.0949 µM,> 1 µM
same,IC50,second compound 0.3 µM,> 1 µM
same,IC50,second compound 0.949 µM,> 1 µM
same,IC50,second compound 3 µM,> 1 µM
same,"viability, T/C","second compound 0.03 µM, first compound 0.00316 µM",109%
same,"viability, T/C","second compound 0.03 µM, first compound 0.01 µM",108%
same,"viability, T/C",[1],94.2%
same,"viability, T/C",[2],112%
same,"viability, T/C",[3],105%
same,"viability, T/C",[4],97.2%
same,"viability, T/C","second compound 0.0949 µM, first compound 0.00316 µM",105%
same,"viability, T/C","second compound 0.0949 µM, first compound 0.01 µM",112%
same,"viability, T/C",[5],121%
same,"viability, T/C",[6],121%
same,"viability, T/C",[7],106%
same,"viability, T/C",[8],103%
same,"viability, T/C","second compound 0.3 µM, first compound 0.00316 µM",107%
same,"viability, T/C","second compound 0.3 µM, first compound 0.01 µM",104%
same,"viability, T/C",[9],114%
same,"viability, T/C",[10],106%
same,"viability, T/C",[11],112%
same,"viability, T/C",[12],97.2%
same,"viability, T/C","second compound 0.949 µM, first compound 0.00316 µM",111%
same,"viability, T/C","second compound 0.949 µM, first compound 0.01 µM",117%
same,"viability, T/C",[13],100%
same,"viability, T/C",[14],99.2%
same,"viability, T/C",[15],97.1%
same,"viability, T/C",[16],88.3%
same,"viability, T/C","second compound 3 µM, first compound 0.00316 µM",110%
same,"viability, T/C","second compound 3 µM, first compound 0.01 µM",112%
same,"viability, T/C",[17],89.1%
same,"viability, T/C",[18],114%
same,"viability, T/C",[19],100%
same,"viability, T/C",[20],85%
O=C(c1cc(Cc2n[nH]c(=O)c3ccccc23)ccc1F)N1CCN(C(=O)C2CC2)CC1 + CCN1C(C(=O)NC23CCC(C(=O)O)(CC2)CC3)C(c2cccc(Cl)c2F)C2(C(=O)Nc3cc(Cl)ccc32)C12CCCCC2,IC50,second compound 0.03 µM,> 10 µM
same,IC50,second compound 0.0949 µM,> 10 µM
same,IC50,second compound 0.3 µM,> 10 µM
same,IC50,second compound 0.949 µM,> 10 µM
same,IC50,second compound 3 µM,> 10 µM
same,"viability, T/C",[1],97.3%
same,"viability, T/C",[2],109%
same,"viability, T/C",[3],94%
same,"viability, T/C",[4],94.6%
same,"viability, T/C","second compound 0.03 µM, first compound 3.16 µM",80.4%
same,"viability, T/C","second compound 0.03 µM, first compound 10 µM",51.2%
same,"viability, T/C",[5],107%
same,"viability, T/C",[6],107%
same,"viability, T/C",[7],96.8%
same,"viability, T/C",[8],93.8%
same,"viability, T/C","second compound 0.0949 µM, first compound 3.16 µM",74.3%
same,"viability, T/C","second compound 0.0949 µM, first compound 10 µM",50.4%
same,"viability, T/C",[9],97.6%
same,"viability, T/C",[10],103%
same,"viability, T/C",[11],95.2%
same,"viability, T/C",[12],79.1%
same,"viability, T/C","second compound 0.3 µM, first compound 3.16 µM",74.5%
same,"viability, T/C","second compound 0.3 µM, first compound 10 µM",53%
same,"viability, T/C",[13],109%
same,"viability, T/C",[14],90.2%
same,"viability, T/C",[15],92.5%
same,"viability, T/C",[16],95.9%
same,"viability, T/C","second compound 0.949 µM, first compound 3.16 µM",73.9%
same,"viability, T/C","second compound 0.949 µM, first compound 10 µM",52%
same,"viability, T/C",[17],90.3%
same,"viability, T/C",[18],83.9%
same,"viability, T/C",[19],85%
same,"viability, T/C",[20],91.9%
same,"viability, T/C","second compound 3 µM, first compound 3.16 µM",81.9%
same,"viability, T/C","second compound 3 µM, first compound 10 µM",51%
